Test results taken from patent publication US12240869B2, “Inhibitors of cyclin-dependent kinase 7 (CDK7)” (Syros Pharmaceuticals, Inc., priority 2018, dated 2025).

What was measured:
[1] = test system: palbociclib-resistant ER+BC PDX (ST1799) model; assay: Tumor growth inhibition in palbociclib-resistant PDX model; format: in vivo, mice; details: last day of 28-day dosing, Compound 101 6 mg/kg QD PO, fulvestrant 2.5 mg/kg weekly SC, palbociclib 50 mpk QD PO
Protocol: (§1) Tumor growth inhibition was evaluated in estrogen receptor-positive breast cancer (ER+BC) PDX models selected in vivo for resistance to the CDK4/6 inhibitor palbociclib (ST1799, n=1) or resistance to both palbociclib and fulvestrant (ST941, n=1). Dosing was initiated when tumors were 100-200 mm^3.

[2] = test system: palbociclib and fulvestrant double-resistant ER+BC PDX model (ST941); assay: Tumor growth inhibition in palbociclib and fulvestrant double-resistant PDX model; format: in vivo, mice; details: fulvestrant 2.5 mg/kg weekly SC
Protocol: as §1

[3] = test system: ST390 (modeling pancreatic ductal adenocarcinoma (PDAC)); assay: Tumor growth inhibition in PDAC PDX model; format: in vivo; details: 6 mg/kg QD PO, over ~28 days, dose well below the MTD
Protocol: In the PDAC model, Compound 101 was orally administered to tumor-bearing NOD/SCID mice at 6 mg/kg QD. […] The % regression was calculated as: (Mean TV Compound 101 @ EOT)/(Mean TV Compound 101 @ Day 0)×100. The same calculations were used for end of study (day 42).

[4] = test system: PDX models BR5010 (TNBC), LU5178 (SCLC), OV15398 (HGSOC); assay: Tumor growth inhibition in TNBC, SCLC and HGSOC PDX models (Example 10); format: in vivo, NOD/SCID mice
[5] = test system: 12 PDX models representing SCLC, TNBC and HGSOC; assay: TGI in 12 PDX models (Example 12); format: in vivo
Protocol: Dosing was initiated when tumors were 150-300 mm^3. […] TGI was calculated on the last day of dosing using the formula: TGI=(Vc1−Vt1)/(Vc0−Vt0), where Vc1 and Vt1 are the mean volumes of control and treated groups at the time of tumor extraction, while Vc0 and Vt0 are the same groups at the start of dosing.

[6] = test system: CRC cell line RKO (BRAF p.V600E mutant); assay: In vitro combination study, CellTiter-Glo viability, CalcuSyn; format: cell-based; details: 5 days
Source text: (§2) Combination effect is reflected by shift in IC50 of Compound 101 with addition of carboplatin or oxaliplatin or increased antiproliferative effect with lower amounts of either single agent. This is visualized in the isobolograms of FIG. 5, where points below the diagonal line reflect synergy.

[7] = test system: SCLC cell line (NCI-H1048); assay: as above; format: cell-based; details: 5 days; median effect principle (Chou-Talalay)
Source text: as §2

[8] = test system: CRC cell line SW480 (KRAS p.G12V mutant); assay: as above; format: cell-based; details: 5 days
[9] = test system: HR+ breast cancer cell line MCF7 (PIK3CA p.E545K); assay: as above; format: cell-based; details: 5 days
[10] = test system: HR+ breast cancer cell line T47D (PIK3CA p.H1047R); assay: as above; format: cell-based; details: 5 days

Row | Structure (SMILES) | Tumor growth inhibition (TGI) [1] [%] | Tumor growth inhibition (TGI) ([2]; last day of 28-day dosing, Compound 101 6 mg/kg QD PO) [%] | TGI [3] [%] | transcriptional responses in xenograft tissue ([4]; after dosing) | TGI, in words ([4]; oral, 21 days, TNBC 10 mg/kg QD or 5 mg/kg BID, SCLC and HGSOC 3 mg/kg BID, followed 21 days after treatment) | tolerability / body weight loss ([5]; all once-daily doses tested, tumor-bearing mice) | TGI of deep responses ([5]; subset of models (58%, 7/12), TGI or regression) [%] | MTD ([5]; tumor-bearing mice) | combination effect with oxaliplatin ([6]; median effect principle (Chou-Talalay)) | combination effect with trametinib ([6]; BRAF p.V600E mutant CRC) | combination effect with carboplatin [7] | combination effect with gemcitabine [7] | combination effect with trametinib [8] | combination effect with capecitabine ([9]; HR+ MCF-7 cells) | combination effect with alpelisib ([9]; PIK3CA p.E545K) | combination effect with alpelisib [10] | activity (tumor growth inhibition), in words ([2]; palbociclib 50 mpk QD PO)
1 | CC1(C)CC[C@H](Nc2ncc(C(F)(F)F)c(-c3c[nH]c4c(P(C)(C)=O)c(C#N)ccc34)n2)CN1 [Compound 101, (S)-7-(dimethylphosphoryl)-3-(2-((6,6-dimethylpiperidin-3-yl)amino)-5-(trifluoromethyl)pyrimidin-4-yl)-1H-indole-6-carbonitrile] | 83 | 33 | 100 | Dose-dependent transcriptional responses in xenograft tissue were observed within 4 hours of dosing and were sustained for 24 hours | deep and sustained TGI, including regressions | well tolerated, with no evident body weight loss | > 95 | above 10 mg/kg once daily | showed synergy and was superior to either agent alone | significant synergy | showed synergy and was superior to either agent alone | showed synergy and was superior to either agent alone | significant synergy | showed synergy and was superior to either agent alone | significant synergy | significant synergy | –
2 | C[C@]12CC[C@@H]3c4ccc(O)cc4C[C@@H](CCCCCCCCC[S+]([O-])CCCC(F)(F)C(F)(F)F)[C@H]3[C@@H]1CC[C@@H]2O (some centres unmarked) [fulvestrant, reference compound] | – | – | – | – | – | – | – | – | – | – | – | – | – | – | – | – | no activity
